Source: US20130309736A1, “COMPOSITIONS AND METHODS FOR MALATE AND FUMARATE PRODUCTION” (CARGILL, INCORPORATED, priority 2011, published 2013)

Experiments:
Assay type in all cases: cell-based
[1] = tested on: Candida geochares; assay: Growth rate in YPD shake flasks (first secondary screen)
Method: (§1) For the first secondary screen, growth rates were measured in YPD media containing 0 g/L malate at pH 3.0 or 200 g/L malate at pH 2.85. Shake flasks were inoculated with biomass harvested from seed flasks grown overnight to an OD600 of 6 to 10. 250 mL baffled growth rate flasks (50 mL working volume) were inoculated to an OD600 of 0.1 and grown at 250 rpm and 30° C. Samples were taken throughout the time course of the assay and analyzed for biomass growth via OD600. The resulting OD600 data was plotted and growth rates were established.
(§2) The same procedures were utilized to screen, rate, and score the original 91 wild-type yeast strains from the primary screen with media containing 0, 30, 45, and 60 g/L lactic acid at pH 3.0 (˜80% free acid). Due to difficulties in properly scoring some very weak growth that occasionally occurred at 60 g/L, 20 strains were re-tested in the primary screen. Of these 20 strains, eight were eliminated due to very slow growth relative to the rest of the test group. The remaining 12 strains were advanced into secondary screening. The secondary screen for lactic acid was the same as that described above for malate, except for changes in concentrations and pH values. Growth rates were measured at 0 g/L lactic acid, pH 3.0 and 50 g/L lactic acid, pH 2.85, and glucose consumption rates were measured in the presence of 50 g/L lactic acid, pH 2.85. Normalized values and weighted and summed scores were calculated for each strain as described above for malate.

[2] = tested on: Candida lambica ATCC 38617; assay: as above
Method: as §1, §2

[3] = tested on: Candida milleri ATCC 60592; assay: as above
Method: as §1, §2

[4] = tested on: Candida sorbosivorans ATCC 38619; assay: as above; conditions: Candida sorosivorans, scale 0 to 1
Method: as §1, §2

[5] = tested on: Candida zemplinina PYCC 04-501; assay: as above
Method: as §1, §2

[6] = tested on: Issatchenkia orientalis ATCC 24210; assay: as above
Method: as §1, §2

[7] = tested on: Issatchenkia orientalis ATCC PTA-6658; assay: as above
Method: as §1, §2

[8] = tested on: Issatchenkia orientalis CD1822; assay: as above
Method: as §1, §2

[9] = tested on: Kodamaea ohmeri ATCC 20282; assay: as above
Method: as §1, §2

[10] = tested on: Saccharomyces bayanus ATCC 90739; assay: as above
Method: as §1, §2

[11] = tested on: Saccharomyces bulderi ATCC MYA-402; assay: as above
Method: as §1, §2

[12] = tested on: Saccharomyces bulderi ATCC MYA-404; assay: as above
Method: as §1, §2

[13] = tested on: Saccharomyces javensis; assay: as above
Method: as §1, §2

[14] = tested on: Candida geochares; assay: Glucose consumption rate in YPD shake flasks (second secondary screen); conditions: 50 g/L lactic acid, pH 2.85, scale 0 to 1
Method: (§3) For the second secondary screen, glucose consumption was measured in YPD media containing 0 g/L malate at pH 3.0 or 200 g/L malate at pH 2.85. Shake flasks were inoculated with biomass harvested from seed flasks grown overnight to an OD600 of 6 to 10. 250 mL baffled glycolytic assay flasks (50 mL working volume) were inoculated to an OD600 of 0.1 and grown at 250 RPM and 30° C. Samples were taken throughout the time course of the assay and analyzed for glucose consumption using a 2700 Biochemistry Analyzer (Yellow Springs Instruments, YSI). The resulting data was plotted and glucose consumption rates were established.
as §2

[15] = tested on: Candida lambica ATCC 38617; assay: as above; conditions: 50 g/L lactic acid, pH 2.85, scale 0 to 1
Method: as §3, §2

[16] = tested on: Candida milleri ATCC 60592; assay: as above; conditions: 50 g/L lactic acid, pH 2.85, scale 0 to 1
Method: as §3, §2

[17] = tested on: Candida sorbosivorans ATCC 38619; assay: as above; conditions: Candida sorosivorans; 50 g/L lactic acid, pH 2.85; scale 0 to 1
Method: as §3, §2

[18] = tested on: Candida zemplinina PYCC 04-501; assay: as above; conditions: 50 g/L lactic acid, pH 2.85, scale 0 to 1
Method: as §3, §2

[19] = tested on: Issatchenkia orientalis ATCC 24210; assay: as above; conditions: 50 g/L lactic acid, pH 2.85, scale 0 to 1
Method: as §3, §2

[20] = tested on: Issatchenkia orientalis ATCC PTA-6658; assay: as above; conditions: 50 g/L lactic acid, pH 2.85, scale 0 to 1
Method: as §3, §2

[21] = tested on: Issatchenkia orientalis CD1822; assay: as above; conditions: 50 g/L lactic acid, pH 2.85, scale 0 to 1
Method: as §3, §2

[22] = tested on: Kodamaea ohmeri ATCC 20282; assay: as above; conditions: 50 g/L lactic acid, pH 2.85, scale 0 to 1
Method: as §3, §2

[23] = tested on: Saccharomyces bayanus ATCC 90739; assay: as above; conditions: 50 g/L lactic acid, pH 2.85, scale 0 to 1
Method: as §3, §2

[24] = tested on: Saccharomyces bulderi ATCC MYA-402; assay: as above; conditions: 50 g/L lactic acid, pH 2.85, scale 0 to 1
Method: as §3, §2

[25] = tested on: Saccharomyces bulderi ATCC MYA-404; assay: as above; conditions: 50 g/L lactic acid, pH 2.85, scale 0 to 1
Method: as §3, §2

[26] = tested on: Saccharomyces javensis; assay: as above; conditions: 50 g/L lactic acid, pH 2.85, scale 0 to 1
Method: as §3, §2

For `CC(O)C(=O)O` (stereo not drawn) [lactic acid], which “Normalized grade: Growth rate slope” value ([1]; lactic acid, scale 0 to 1) is on record?
Its value is 0.27.

What about the “Normalized grade: Growth rate 50 g/L lactic acid” value ([1]; pH 2.85, scale 0 to 1) of the same compound?
The value was 0.17.

And the “Normalized grade: Growth rate slope” value ([2]; lactic acid, scale 0 to 1)?
Its value is 1.

What about the “Normalized grade: Growth rate 50 g/L lactic acid” value ([2]; pH 2.85, scale 0 to 1) of the same compound?
The value was 0.92.

And the “Normalized grade: Growth rate slope” value ([3]; lactic acid, scale 0 to 1)?
The value was 0.64.

What about the “Normalized grade: Growth rate 50 g/L lactic acid” value ([3]; pH 2.85, scale 0 to 1) of the same compound?
The value was 0.

And the “Normalized grade: Growth rate slope” value ([4]; lactic acid)?
The value was 0.95.

What about the “Normalized grade: Growth rate 50 g/L lactic acid” value ([4]; pH 2.85) of the same compound?
The value was 0.28.

And the “Normalized grade: Growth rate slope” value ([5]; lactic acid, scale 0 to 1)?
The value was 0.95.

And the “Normalized grade: Growth rate 50 g/L lactic acid” value ([5]; pH 2.85, scale 0 to 1)?
Its value is 0.22.

And the “Normalized grade: Growth rate slope” value ([6]; lactic acid, scale 0 to 1)?
Its value is 0.73.

What about the “Normalized grade: Growth rate 50 g/L lactic acid” value ([6]; pH 2.85, scale 0 to 1) of the same compound?
Its value is 0.89.

What about the “Normalized grade: Growth rate slope” value ([7]; lactic acid, scale 0 to 1) of the same compound?
Its value is 0.95.

What about the “Normalized grade: Growth rate 50 g/L lactic acid” value ([7]; pH 2.85, scale 0 to 1) of the same compound?
Its value is 0.94.

And the “Normalized grade: Growth rate slope” value ([8]; lactic acid, scale 0 to 1)?
Its value is 0.86.

What about the “Normalized grade: Growth rate 50 g/L lactic acid” value ([8]; pH 2.85, scale 0 to 1) of the same compound?
The value was 1.00.

What about the “Normalized grade: Growth rate slope” value ([9]; lactic acid, scale 0 to 1) of the same compound?
The value was 0.

What about the “Normalized grade: Growth rate 50 g/L lactic acid” value ([9]; pH 2.85, scale 0 to 1) of the same compound?
The value was 0.42.

What about the “Normalized grade: Growth rate slope” value ([10]; lactic acid, scale 0 to 1) of the same compound?
Its value is 0.91.

What about the “Normalized grade: Growth rate 50 g/L lactic acid” value ([10]; pH 2.85, scale 0 to 1) of the same compound?
Its value is 0.08.

What about the “Normalized grade: Growth rate slope” value ([11]; lactic acid, scale 0 to 1) of the same compound?
The value was 0.23.

What about the “Normalized grade: Growth rate 50 g/L lactic acid” value ([11]; pH 2.85, scale 0 to 1) of the same compound?
Its value is 0.5.

And the “Normalized grade: Growth rate slope” value ([12]; lactic acid, scale 0 to 1)?
Its value is 0.45.

What about the “Normalized grade: Growth rate 50 g/L lactic acid” value ([12]; pH 2.85, scale 0 to 1) of the same compound?
The value was 0.47.

And the “Normalized grade: Growth rate slope” value ([13]; lactic acid, scale 0 to 1)?
The value was 0.68.

What about the “Normalized grade: Growth rate 50 g/L lactic acid” value ([13]; pH 2.85, scale 0 to 1) of the same compound?
The value was 0.11.

What about the “Normalized grade: Glycolic rate” value [14] of the same compound?
Its value is 0.69.

And the “Normalized grade: Glycolic rate” value [15]?
Its value is 1.

And the “Normalized grade: Glycolic rate” value [16]?
The value was 0.92.

And the “Normalized grade: Glycolic rate” value [17]?
The value was 0.59.

And the “Normalized grade: Glycolic rate” value [18]?
The value was 1.

What about the “Normalized grade: Glycolic rate” value [19] of the same compound?
The value was 1.

And the “Normalized grade: Glycolic rate” value [20]?
The value was 1.

What about the “Normalized grade: Glycolic rate” value [21] of the same compound?
Its value is 1.

What about the “Normalized grade: Glycolic rate” value [22] of the same compound?
The value was 0.76.

And the “Normalized grade: Glycolic rate” value [23]?
The value was 0.96.

And the “Normalized grade: Glycolic rate” value [24]?
The value was 1.

And the “Normalized grade: Glycolic rate” value [25]?
The value was 1.

And the “Normalized grade: Glycolic rate” value [26]?
The value was 0.
